According to PubChem BioAssay (NCI):
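Protocol summary: plate cells (96-well), add compound at 5 concentrations, incubate 48 h, interpolate endpoints linearly. TGI: total growth inhibition.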 Where a SMILES comes first, the peptide text is derived from it. Residues, ends and D or L forms follow the SMILES beside them. *: point of attachment. Boc = CC(C)(C)OC(=O)*; OBn = c1ccc(CO*)cc1

Experiments:
Experiment in all cases: growth of human tumour cells (NCI), 48 h
UACC-257 melanoma = system: UACC-257 melanoma
HCT-116 colon = system: HCT-116 colon
SK-OV-3 ovarian = system: SK-OV-3 ovarian
786-0 renal = system: 786-0 renal
OVCAR-8 ovarian = system: OVCAR-8 ovarian
COLO 205 colon = system: COLO 205 colon
DU-145 prostate = system: DU-145 prostate
SW-620 colon = system: SW-620 colon
SF-539 CNS = system: SF-539 CNS
PC-3 prostate = system: PC-3 prostate
A549 NSCLC = system: A549 NSCLC
UO-31 renal = system: UO-31 renal
MCF7 breast = system: MCF7 breast
U251 CNS = system: U251 CNS
NCI-H460 lung = system: NCI-H460 lung
SK-MEL-2 melanoma = system: SK-MEL-2 melanoma
SR leukemia = system: SR leukemia
NCI-H522 lung = system: NCI-H522 lung
RXF 393 renal = system: RXF 393 renal

Compound	TGI (UACC-257 melanoma)	TGI (HCT-116 colon)	TGI (SK-OV-3 ovarian)	TGI (786-0 renal)	TGI (OVCAR-8 ovarian)	TGI (COLO 205 colon)	TGI (DU-145 prostate)	TGI (SW-620 colon)	TGI (SF-539 CNS)	TGI (PC-3 prostate)	TGI (A549 NSCLC)	TGI (UO-31 renal)	TGI (MCF7 breast)	TGI (U251 CNS)	TGI (NCI-H460 lung)	TGI (SK-MEL-2 melanoma)	TGI (SR leukemia)	TGI (NCI-H522 lung)	TGI (RXF 393 renal)
CC(C)(C)c1cc(OCc2nnc3sc(=S)[nH]n23)c(Cl)cc1OCc1nnc2sc(=S)[nH]n12	83.8 µM	50.6 µM	> 100 µM	95 µM	> 100 µM	> 100 µM	94 µM	> 100 µM	> 100 µM	> 100 µM	> 100 µM	82.4 µM	31.6 µM	65.2 µM	81.8 µM	58.9 µM	50.8 µM	37.8 µM	69.1 µM
CC1Cc2cc(O)c(O)cc2-c2cc(O)c(O)cc2CC1C (stereo not drawn)	29.1 µM	34.5 µM	> 100 µM	39.9 µM	53.3 µM	32.1 µM	> 100 µM	42.5 µM	19.6 µM	61.5 µM	71.1 µM	85.3 µM	37.1 µM	32.6 µM	42.7 µM	15 µM	33 µM	49.8 µM	56.4 µM
O=C1N[C@@H]2c3c(Br)sc(Br)c3C(=O)[C@@H]2O1	8.76 µM	2.78 µM	32.7 µM	19.8 µM	4.52 µM	6.58 µM	28.2 µM	4.04 µM	24.1 µM	18.7 µM	32.6 µM	24.8 µM	12.6 µM	6.1 µM	27.7 µM	37.1 µM	4.03 µM	1.53 µM	4.95 µM
O=C(CCCl)NNC1=NCCCCN1	> 100 µM	> 100 µM	> 100 µM	> 100 µM	> 100 µM	> 100 µM	> 100 µM	> 100 µM	> 100 µM	> 100 µM	> 100 µM	> 100 µM	> 100 µM	> 100 µM	> 100 µM	> 100 µM	> 100 µM	> 100 µM	> 100 µM
O=C1c2ccccc2CC12Cc1ccccc1C2	54.2 µM	> 100 µM	> 100 µM	> 100 µM	> 100 µM	> 100 µM	> 100 µM	> 100 µM	> 100 µM	> 100 µM	> 100 µM	> 100 µM	> 100 µM	> 100 µM	> 100 µM	> 100 µM	83.5 µM	> 100 µM	70.1 µM
O/N=C(\CC(O)(C(F)(F)F)C(F)(F)F)c1cccc(Cl)c1	> 100 µM	> 100 µM	58.5 µM	> 100 µM	> 100 µM	> 100 µM	> 100 µM	> 100 µM	85.9 µM	83.3 µM	> 100 µM	–	> 100 µM	49 µM	> 100 µM	63.5 µM	> 100 µM	> 100 µM	46.5 µM
CCCCCCOc1ccc(C(=O)N(C)O)cc1	> 100 µM	> 100 µM	> 97.1 µM	55.7 µM	61 µM	56 µM	66 µM	> 100 µM	44.6 µM	98 µM	56.6 µM	60.9 µM	> 100 µM	> 100 µM	30 µM	> 100 µM	39.6 µM	90.6 µM	97.6 µM
CN1C=Cc2nccc3cc4c(c1c23)OCO4	16.9 µM	35.2 µM	61.6 µM	24.8 µM	> 100 µM	> 42.8 µM	> 25.1 µM	> 100 µM	–	40.9 µM	> 55.4 µM	34.9 µM	> 23.6 µM	32.4 µM	> 33.1 µM	11.3 µM	10.9 µM	8.2 µM	7.61 µM
C=C(C)C(O)C(O)C[C@@H](C)C1CC[C@]23C[C@]12CCC1[C@@]2(C)CCC(OC(C)=O)C(C)(C)C2CC(OC2OC(CO)C(O)C(O)C2O)[C@]13C (stereo partly drawn)	31.4 µM	29.5 µM	45.7 µM	35.1 µM	37.1 µM	31.5 µM	43.3 µM	30.8 µM	27.8 µM	34.7 µM	> 100 µM	> 100 µM	31 µM	29.1 µM	34.5 µM	30.6 µM	36.3 µM	30.7 µM	29.3 µM
O=c1oc2ccc(Cl)cc2cc1-c1cn2ccccc2n1	> 100 µM	45.2 µM	6.52 µM	18 µM	> 100 µM	> 100 µM	> 100 µM	> 100 µM	> 100 µM	> 100 µM	> 89.3 µM	19.2 µM	99.2 µM	> 40.2 µM	> 62.5 µM	> 100 µM	> 100 µM	> 100 µM	> 44.7 µM
Cc1ccc(N2CCN(CCC(=O)O)CC2)cc1	> 100 µM	> 100 µM	> 100 µM	> 100 µM	> 100 µM	> 100 µM	> 100 µM	> 100 µM	> 100 µM	> 100 µM	> 100 µM	> 100 µM	> 100 µM	> 100 µM	> 100 µM	> 100 µM	> 100 µM	> 100 µM	> 100 µM
O=C(NCCN1CCCCC1)c1ccc(I)cc1	> 100 µM	> 100 µM	> 100 µM	> 100 µM	> 100 µM	> 100 µM	> 100 µM	> 100 µM	> 100 µM	> 100 µM	> 100 µM	> 100 µM	> 100 µM	> 100 µM	> 100 µM	> 100 µM	> 100 µM	> 100 µM	> 100 µM
CN(C)C=NCCN1CCOCC1	> 100 µM	> 100 µM	> 100 µM	> 100 µM	> 100 µM	> 100 µM	> 100 µM	–	> 100 µM	> 100 µM	> 100 µM	> 100 µM	> 100 µM	> 100 µM	–	> 100 µM	> 100 µM	> 100 µM	> 100 µM
C=CC(Br)(CBr)CCC(Br)C(C)(C)Cl (stereo not drawn)	10.6 µM	3.4 µM	30.1 µM	5.64 µM	10.2 µM	4.36 µM	9.92 µM	5.67 µM	3.78 µM	9.1 µM	28.6 µM	3.97 µM	4.89 µM	2.92 µM	6.06 µM	29.5 µM	3.78 µM	2.79 µM	8.86 µM
NC(=O)C(=O)C(c1ccccc1)S(=O)(=O)Cc1ccccc1 (stereo not drawn)	> 100 µM	> 100 µM	> 100 µM	> 100 µM	> 100 µM	> 100 µM	> 100 µM	> 100 µM	> 100 µM	> 100 µM	> 100 µM	> 100 µM	> 100 µM	> 100 µM	> 100 µM	> 100 µM	> 100 µM	> 100 µM	> 100 µM
N#Cc1c(Cl)nc2ccccc2c1N=[N+]=[N-]	27.8 µM	3.06 µM	29 µM	7.17 µM	7.7 µM	3.56 µM	28.1 µM	3.54 µM	4.6 µM	8.44 µM	35.3 µM	9.4 µM	22.5 µM	12.5 µM	21.4 µM	5.12 µM	3.93 µM	4.62 µM	2.93 µM
O=c1c2cc(Cl)ccc2[nH]c2cc(O)cc(O)c12	> 10 µM	> 10 µM	> 10 µM	> 10 µM	> 10 µM	> 10 µM	> 10 µM	> 10 µM	> 10 µM	> 10 µM	> 10 µM	–	> 10 µM	> 10 µM	> 10 µM	> 10 µM	> 10 µM	> 10 µM	> 10 µM
O=C(NC(Nc1ccc(F)cc1)(C(F)(F)F)C(F)(F)F)C(C(F)(F)F)C(F)(F)F	> 100 µM	> 100 µM	> 100 µM	> 100 µM	> 100 µM	> 100 µM	> 100 µM	> 100 µM	> 85.9 µM	> 100 µM	> 100 µM	> 62.5 µM	> 100 µM	> 100 µM	> 100 µM	25.2 µM	> 95.8 µM	> 89.6 µM	> 100 µM
CC(C)(C)OC(=O)c1ccc(NCC2=CC(=O)C=CC2=O)cc1	24.9 µM	26.2 µM	41.6 µM	22 µM	26.9 µM	7.21 µM	31.6 µM	22.6 µM	12.7 µM	24.4 µM	40.1 µM	19.7 µM	12.3 µM	27.1 µM	> 59.5 µM	31.8 µM	> 23.1 µM	3.1 µM	23.6 µM
O=C(CC(=O)N1N=C(N(c2ccccc2)c2ccccc2)CC1c1ccccc1)Nc1ccc(Cl)cc1 (stereo not drawn)	> 100 µM	> 100 µM	> 100 µM	> 100 µM	> 100 µM	> 100 µM	> 100 µM	> 100 µM	> 100 µM	> 100 µM	> 100 µM	> 100 µM	> 100 µM	> 100 µM	> 100 µM	> 100 µM	> 100 µM	> 100 µM	> 100 µM
COc1ccc(/C=C2/NC(=S)N=C2Cl)cc1	> 100 µM	> 100 µM	> 100 µM	> 100 µM	> 100 µM	> 100 µM	> 100 µM	> 100 µM	> 100 µM	> 100 µM	> 100 µM	> 100 µM	> 100 µM	> 100 µM	–	> 100 µM	> 100 µM	> 100 µM	> 100 µM
N#Cc1nc(-c2ccccn2)oc1N	> 100 µM	> 100 µM	> 100 µM	> 100 µM	–	> 100 µM	> 100 µM	> 100 µM	–	> 100 µM	–	> 100 µM	> 100 µM	> 100 µM	> 100 µM	> 100 µM	> 100 µM	> 100 µM	> 100 µM
CC1=CC(C)C(C)N(CCNS(=O)(=O)c2ccc(C)cc2)c2ccccc21 (stereo not drawn)	34.2 µM	17.7 µM	> 100 µM	20.8 µM	24 µM	17.3 µM	24.7 µM	–	18.1 µM	30.5 µM	> 31.6 µM	> 31.6 µM	19.8 µM	31.7 µM	19.2 µM	18 µM	> 31.6 µM	61.1 µM	17.7 µM
CC(C)CC(NC(=O)C(Cc1ccccc1)NC(=O)C(Cc1c[nH]c2ccccc12)NC(=O)CNC(=O)C(N)Cc1ccc(O)cc1)C(=O)O (stereo not drawn) (H-YGWFL-OH; configuration not given here)	> 100 µM	70.6 µM	> 100 µM	49.4 µM	> 100 µM	32.9 µM	> 100 µM	–	87 µM	> 100 µM	> 100 µM	> 100 µM	> 100 µM	> 100 µM	> 100 µM	> 100 µM	> 100 µM	95.6 µM	> 100 µM
CC(C)CC(NC(=O)OC(C)(C)C)C(=O)N1CCCC1C(=O)OCc1ccccc1 (stereo not drawn) (Boc-Leu-Pro-OBn; configuration not given here)	> 100 µM	> 100 µM	> 100 µM	> 100 µM	> 100 µM	> 100 µM	> 100 µM	> 100 µM	> 100 µM	> 100 µM	> 100 µM	> 100 µM	> 100 µM	> 100 µM	–	> 100 µM	> 100 µM	> 100 µM	> 100 µM
